# Test results published in PubChem BioAssay AID1996.
# Conditions: buffer; pH 7.4; 200.0 µM
row,solubility kinetic,Structure (SMILES)
1,5.9 µg/mL,CCc1cc(C(=O)c2ccc(OC)cc2)c(NC(=O)CN2CCCC2)s1
2,2.8 µg/mL,S=C1NC2(CCCCCC2)N=C1c1ccccc1
3,< 0.7 µg/mL,CC(=O)c1cn(CCOc2cc(C)ccc2C)c2ccccc12
4,28.9 µg/mL,N#Cc1ccccc1NC(=S)NC(=O)c1cccnc1
5,> 45.5 µg/mL,Cc1ccc(S(=O)(=O)N2CCC3(CC2)OCCO3)s1
6,> 51.7 µg/mL,Cc1ccccc1NC(=O)c1ccc(S(=O)(=O)N2CCCC2)cc1
7,> 42.8 µg/mL,O=C(c1ccccc1F)N1CCN(c2ccccn2)CC1
8,> 59.8 µg/mL,CCOC(=O)c1ccc(S(=O)(=O)NCCNCc2ccccc2)cc1.Cl
9,> 47.4 µg/mL,O=C(NCc1ccc(F)cc1)C1CC(=O)N(Cc2ccco2)C1 (stereo not given)
10,5.3 µg/mL,Cc1c(Cl)cccc1NC(=O)NCc1ccc(C)n1C
11,> 36.9 µg/mL,O=c1[nH]c(NCCO)nnc1Cc1ccccc1
12,12.7 µg/mL,O=C(CCC(=O)NCc1ccccc1)NCc1ccccc1
13,0.9 µg/mL,Cc1cc2ccccn2c1C(=O)c1ccc(F)cc1
14,26.6 µg/mL,CC1(C)CC(=O)c2cnc3nc4ccccc4n3c2C1
15,4.4 µg/mL,Cc1cc(C(=O)OCC(=O)Nc2ccccc2Br)c(C)o1
16,1.2 µg/mL,COc1ccccc1NC(=O)c1csc2c1CCC(C)C2 (stereo not given)
17,> 50.2 µg/mL,CCC(C)NC(=O)c1ccc(NC(=O)C2=C(C)OCCS2)cc1 (stereo not given)
18,9.5 µg/mL,O=C1c2ccccc2NC(c2ccc(O)cc2)N1c1ccccc1 (stereo not given)
19,> 58.9 µg/mL,CC1CN(S(=O)(=O)c2ccc(C(=O)Nc3ccccc3F)cc2)CC(C)O1 (stereo not given)
20,10.6 µg/mL,COc1ccc(NC(=O)CNC(=O)Cc2ccccc2)cc1
21,33.3 µg/mL,Cc1ccc(NC(=O)C2=C(C(=O)O)CCCC2)cc1Br
22,> 47.4 µg/mL,Cc1onc(C(=O)N2CCN(c3ccccc3)CC2)c1[N+](=O)[O-]
23,> 52.7 µg/mL,CC(=O)NCCc1nc2cc(NC(=O)Nc3ccccc3)ccc2n1C

row,solubility kinetic,Structure (SMILES)
1,> 47.2 µg/mL,C=CCNC(=O)CC1Nc2c3ccccc3nc(=S)n2C1=O (stereo not given)
2,24 µg/mL,O=C(O)c1ccccc1NCCO
3,29.6 µg/mL,Clc1ccc(CN2CCN(c3ncccn3)CC2)cc1
4,35.6 µg/mL,Cc1nc(Cl)c(C(=O)NCc2ccccc2)c(C)c1Cl
5,< 0.2 µg/mL,Cc1ccc(-c2cc(-c3ccccc3)nc(N)c2C#N)o1
6,3 µg/mL,N/C(=N\OC(=O)c1cccc(Br)c1)c1ccccn1
7,40.3 µg/mL,CN(C)C(=O)N1CCN(c2nc(-c3ccccc3)cs2)CC1
8,4.5 µg/mL,CCOC(=O)c1c(C)[nH]c(C(=O)OCC(=O)NCc2ccccc2)c1C
9,> 47 µg/mL,Cc1ccc(S(=O)(=O)NC2=NCN(C)CN2)cc1[N+](=O)[O-]
10,15.3 µg/mL,O=C(C1CCCN1S(=O)(=O)c1ccc(Cl)cc1)N1CCN(c2ccccc2)CC1 (stereo not given)
11,> 43.9 µg/mL,Cc1csc(SC(C)C(=O)Nc2ccccc2C)n1 (stereo not given)
12,5.1 µg/mL,Cn1cnc([N+](=O)[O-])c1Sc1nc2ccccc2[nH]1
13,33.8 µg/mL,Cc1noc(C(=O)N(C)c2ccccc2)c1Cl
14,44.9 µg/mL,COc1ccc(C(C)=O)cc1CN1C(=O)NC2(CCCC2)C1=O
15,3.2 µg/mL,Cn1c(N)c(C(=O)COC(=O)c2ccccc2C(=O)c2ccc(Cl)c([N+](=O)[O-])c2)c(=O)n(C)c1=O
16,0.8 µg/mL,Cc1ccc(NC(=S)N2CCc3[nH]c4ccccc4c3C2)cc1
17,> 51.8 µg/mL,O=C(CC(c1ccccc1)c1ccccc1)Nc1ccc(C(=O)O)cc1
18,> 52.1 µg/mL,O=C(O)CCN1C(=O)C2C3c4ccccc4C(c4ccccc43)C2C1=O (stereo not given)
19,> 36 µg/mL,O=C1CN(S(=O)(=O)c2ccccc2)CCN1
20,23 µg/mL,Cc1ccnc(NCc2ccccc2O)c1
21,37.1 µg/mL,Cc1cccc(N(C)S(=O)(=O)c2c(C)noc2C)c1
22,> 51.4 µg/mL,CNC(=O)CSc1nnc(-c2ccco2)n1-c1cccc(C)c1C
23,> 58.6 µg/mL,Cc1nn(CC(=O)N2CCc3ccccc32)c(C)c1S(=O)(=O)NC(C)(C)C

row,solubility kinetic,Structure (SMILES)
1,43.8 µg/mL,Cc1cc(C)c[n+](CC(=O)c2ccccc2)c1.[Br-]
2,9.8 µg/mL,Cc1cccc(NCc2cccc3ccccc23)n1
3,< 0.2 µg/mL,Cn1c(/C=C/c2cccc([N+](=O)[O-])c2)nc2ccccc2c1=O
4,45.2 µg/mL,COc1cccc(C(=O)Nc2ccc(C(=O)NCC3CCCO3)cc2)c1 (stereo not given)
5,47.4 µg/mL,CC1CCc2c(sc(NC(=O)c3cccs3)c2C(=O)O)C1 (stereo not given)
6,17.8 µg/mL,Cc1ccc(OC(=O)Nc2ccccc2)cc1
7,0.4 µg/mL,O=C(Nc1ccccc1)Nc1ccc2c(c1)CCC2
8,> 41.5 µg/mL,CC1CN(c2ccnc3cc(Cl)ccc23)CC(C)O1 (stereo not given)
9,> 54.4 µg/mL,NC(=O)CN(Cc1ccccc1)S(=O)(=O)c1ccc2c(c1)OCCO2
10,> 41.4 µg/mL,Cc1c(Cl)cccc1NC(=O)NCc1cccnc1
11,> 44.2 µg/mL,O=C(NC1CCN(Cc2ccccc2)CC1)c1ccccc1
12,5.4 µg/mL,Cc1cc(NC(=O)/C=C/c2ccccc2)c(C(C)C)cc1O
13,41 µg/mL,CN1CCN(C(=O)/C=C/c2ccc(Cl)c(Cl)c2)CC1
14,23 µg/mL,COc1ccc(C(=O)NCC(=O)OCC(=O)N2CCc3ccccc32)cc1
15,> 46.9 µg/mL,CCOC(=O)c1csc(NC(=O)CN2CCN(C)CC2)n1
16,2.3 µg/mL,CC(=O)c1ccc(Oc2ncnc(N)c2[N+](=O)[O-])cc1
17,> 46.6 µg/mL,COc1ccc(N2CCN(CC(=O)c3ccccc3)CC2)cc1
18,39.5 µg/mL,CCCn1c(COc2ccccc2OC)nc2ccccc21
19,6.5 µg/mL,Cc1ccccc1C(=O)NC1CCN(C(=O)NC2CCCCC2)CC1
20,20.2 µg/mL,CCCCn1c(NC(=O)c2ccco2)c(S(=O)(=O)c2ccc(C)cc2)c2nc3ccccc3nc21
21,16.7 µg/mL,CC1CCCCC1NC(=O)c1cc(S(=O)(=O)N2CCOCC2)ccc1Cl (stereo not given)
22,19.7 µg/mL,Cc1ccc(CNC(=O)CSCc2ccccc2)cc1
23,9.3 µg/mL,CCN(C(=O)COc1nc(C)cc(C)c1C#N)c1ccccc1

# Continued, molecule first:
row,Structure (SMILES),solubility kinetic
1,Cc1nc(-c2ccccc2OC(F)(F)F)[nH]c(=O)c1Cl,43.2 µg/mL
2,CCOC(=O)c1sc(Nc2nc(C)cc(OC)n2)nc1C,5.1 µg/mL
3,COc1ccc(OCCSc2ncc(CO)n2C)cc1,> 44.2 µg/mL
4,COc1ccc(NC(=O)Nc2ccc3c(c2)CCC3)c(OC)c1,< 0.3 µg/mL
5,Cc1ccc(OCC(=O)Nc2ccc3c(c2)C(=O)NC3=O)c(C)c1,0.6 µg/mL
6,O=C(O)CC1(CC(=O)Nc2cc(F)ccc2Cl)CCCCC1,> 49.2 µg/mL
7,Cc1ccc(C(=O)NCC(=O)Nc2ccncc2)cc1C,12.3 µg/mL
8,CCN1CCN(Cc2cccnc2)CC1,20.2 µg/mL
9,O=c1[nH]c(=O)n([C@H]2C[C@H](O)[C@@H](CO)O2)cc1C(F)(F)F,> 44.4 µg/mL
10,CC(C)CC(OC(=O)c1ccco1)C(=O)NC1CCCC1 (stereo not given),41.1 µg/mL
11,CN(C(=O)Nc1ccc(C(C)(C)C)cc1)C1CCCCC1,< 0.3 µg/mL
12,OC(COc1ccc2c(c1)OCO2)CN1CCCCC1 (stereo not given),32.5 µg/mL
13,COc1ccc(CNC(=O)COC(=O)Cc2ccc(Br)cc2)cc1,5.8 µg/mL
14,COc1ccc(S(=O)(=O)n2cccc2)cc1,4.2 µg/mL
15,COc1ccc(-n2c(-c3ccc(Cl)cc3)c[nH]c2=S)cc1,1.5 µg/mL
16,CC(C)[C@H](NC(=O)c1ccccc1Cl)C(=O)OCC(=O)NC(=O)NCc1ccco1,40.1 µg/mL
17,COc1cc2c(cc1OC)C(C)N(S(=O)(=O)c1ccc(C)cc1)CC2 (stereo not given),26.8 µg/mL
18,Cc1ncc(CSc2nccc(=O)[nH]2)c(CO)c1O,> 41.9 µg/mL
19,CCNC(=O)CSc1nc(-c2ccc(F)cc2)cs1,42.8 µg/mL
20,C=CCc1cccc(C=Nc2c[nH]c(=O)[nH]c2=O)c1O,8.4 µg/mL
21,O=C(CN1C(=O)NC2(CCCC2)C1=O)NCC1CCCO1 (stereo not given),38.5 µg/mL
22,COCC(C)NC(=O)C(C)N1c2cccc3cccc(c23)S1(=O)=O (stereo not given),50.9 µg/mL
23,COc1cc2c(cc1OC)C(c1ccc(C)cc1)NC(=O)C2 (stereo not given),42.5 µg/mL
24,CCC1(C)Cc2c(sc3nc(SC)[nH]c(=O)c23)CO1 (stereo not given),7.9 µg/mL
25,CC(C)c1ccc(NC(=O)NCc2cccnc2)cc1,> 40.4 µg/mL
26,Cc1ccc(C(=O)Nc2ccc(NC(=O)c3ccco3)c(C)c2)cc1,2.8 µg/mL

row,Structure (SMILES),solubility kinetic
1,Cc1ccsc1CNCCc1ccccc1F,27.1 µg/mL
2,COc1ccc(C)cc1COC(=O)c1[nH]c(C)c(C(C)=O)c1C,> 47.3 µg/mL
3,O=C(Nc1ccc(OC(F)F)cc1)c1ccccn1,31.5 µg/mL
4,CCOC(=O)c1c(C)[nH]c(C(=O)COc2ccc3ccc(=O)oc3c2)c1C,9.2 µg/mL
5,COc1ccc(C(O)Cc2nccn2C)cc1 (stereo not given),> 34.8 µg/mL
6,Cc1ccc(NC(=O)COC(=O)Cn2cnc3c2c(=O)n(C)c(=O)n3C)cc1,> 57.8 µg/mL
7,CC1CCC2(CC1)SCC(=O)N2c1ccc(F)cc1 (stereo not given),39.5 µg/mL
8,O=C1c2cccc3cccc(c23)C(=O)N1c1ccccc1Cl,0.8 µg/mL
9,O=C(Nc1ccc(NC(=O)c2cccs2)cc1)c1cccnc1,0.4 µg/mL
10,CC1CN(CC(=O)NCc2ccc(Cl)cc2)CC(C)O1 (stereo not given),> 44.5 µg/mL
11,CC(=O)c1sc(NC(=O)Cc2c(F)cccc2Cl)nc1C,8.2 µg/mL
12,O=C(CN1C(=O)c2cccc3cccc(c23)C1=O)NCCCO,> 46.8 µg/mL
13,CCOP(=O)(OCC)C(NC(=O)NC)C(N)=O (stereo not given),30.4 µg/mL
14,CN(C(=O)COC(=O)c1cnc(Cl)c(Cl)c1)C1CCCCC1,41.7 µg/mL
15,CCOc1ccc(NC(=O)Nc2cccc(C)n2)cc1,< 0.2 µg/mL
16,COc1cccc(CN(C)C(=O)CCC(=O)c2cc(Br)ccc2OC)c1,18.3 µg/mL
17,COC(=O)c1c(-c2ccc(F)cc2)csc1NC(=O)C1CCCO1 (stereo not given),5.2 µg/mL
18,CC1CCCC(C)N1C(=O)CSc1nc(N)cc(N)n1 (stereo not given),> 44.3 µg/mL
19,O=C(CNS(=O)(=O)c1ccc(Cl)c(C(F)(F)F)c1)NC1CCCCC1,12.6 µg/mL
20,Fc1cccc(CN2CCSCC2)c1,6.3 µg/mL
21,Brc1nc(-c2ccccc2)nc(-c2ccccc2)c1Br,< 0.4 µg/mL
22,Cl.O=C(NC12CC3CC(CC(C3)C1)C2)OCCNC1CCCCC1,> 53.5 µg/mL
23,Cc1cc(=O)n(Cc2ccc(OC(C)C)cc2)c(=S)[nH]1,13.8 µg/mL
24,Cc1ccc(Nc2nc(Cl)nc(NC(C)(C)C)n2)cc1,3.8 µg/mL
25,COc1ccc(OCC(O)CNS(=O)(=O)c2cccc(Cl)c2)cc1 (stereo not given),51.4 µg/mL
